The values that follow are results of earlier work, collected in US20160361270A1, “UNIFORM, HIGH BASIS WEIGHT NANOFIBER FABRICS FOR MEDICAL APPLICATIONS” (University of Washington, priority 2015, published 2016).

Assay in data set [1]: not given
The source holds these as a separate data set.

Take `C[C@H](Cn1cnc2c(N)ncnc21)OCP(=O)(O)O` [tenofovir]: the water solubility is greater than 1000 µg/mL.
For the molecule `Cc1nnc(C(=O)NC(C)(C)c2nc(C(=O)NCc3ccc(F)cc3)c(O)c(=O)n2C)o1` [raltegravir], the pKa in data set [1] is on record as 7.
With `Cc1cc(C)c(Nc2ccnc(Nc3ccc(C#N)cc3)n2)c(C)c1` [dapivirine], the water solubility is less than 1 µg/mL.
As to `Cc1cc(C#N)cc(C)c1Oc1nc(Nc2ccc(C#N)cc2)nc(N)c1Br` [etravirine], the water solubility was less than 100 µg/mL.
